Reference: ChEMBL document CHEMBL3580570, “Discovery and SAR study of a sulfonamide hydroxamic acid inhibitor for the botulinum neurotoxin serotype A light chain” (Medchemcomm, 2014)

Target: Botulinum neurotoxin type A (Clostridium botulinum, UniProt P0DPI0)
Assay: Competitive inhibition of Clostridium botulinum BoNT/A LC using SNAPtide as substrate after 10 mins by FRET assay

Botulinum neurotoxin type A, sequence (P0DPI0 2-448 limits assumed): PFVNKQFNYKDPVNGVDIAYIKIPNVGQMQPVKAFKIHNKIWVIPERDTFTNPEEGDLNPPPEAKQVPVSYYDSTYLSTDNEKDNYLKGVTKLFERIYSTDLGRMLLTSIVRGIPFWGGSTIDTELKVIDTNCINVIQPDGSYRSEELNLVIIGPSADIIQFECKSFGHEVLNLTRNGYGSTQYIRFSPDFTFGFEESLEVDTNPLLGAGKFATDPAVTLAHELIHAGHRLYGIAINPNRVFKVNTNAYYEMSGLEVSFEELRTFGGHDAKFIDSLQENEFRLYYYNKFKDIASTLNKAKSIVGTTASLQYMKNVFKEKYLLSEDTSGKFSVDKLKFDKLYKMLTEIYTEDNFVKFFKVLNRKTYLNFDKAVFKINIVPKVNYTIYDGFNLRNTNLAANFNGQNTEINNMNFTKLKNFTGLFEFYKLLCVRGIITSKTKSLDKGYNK

| SMILES | Ki [µM] | IC50 [µM] |
| --- | --- | --- |
| O=C(NO)[C@@H]1C[C@@H](Oc2ccc(Cl)cc2)CN1S(=O)(=O)c1ccc(Cl)cc1 | 6.3 |  |
| CC[C@H](C)[C@H](NS(=O)(=O)c1ccc(-c2ccc(F)cc2)cc1)C(=O)NO |  | 9.6 |
| CC[C@H](C)[C@H](NS(=O)(=O)c1ccc(-c2ccc(NC(C)=O)cc2)cc1)C(=O)NO |  | > 100 |
| CC[C@H](C)[C@H](NS(=O)(=O)c1ccc(-c2ccc(OC)cc2)cc1)C(=O)NO |  | > 100 |
| CC[C@H](C)[C@H](NS(=O)(=O)c1ccc(-c2ccccc2)cc1)C(=O)NO |  | 27.7 |
| CC[C@H](C)[C@H](NS(=O)(=O)c1cccc(-c2ccc(Cl)cc2)c1)C(=O)NO |  | 8.14 |
| CC[C@H](C)[C@H](NS(=O)(=O)c1ccc2c(c1)OCCO2)C(=O)NO |  | 20.7 |
| CC[C@H](C)[C@H](NS(=O)(=O)c1ccccc1)C(=O)NO |  | > 100 |
| CC[C@H](C)[C@@H](NS(=O)(=O)c1ccc(-c2ccc(Cl)cc2)cc1)C(=O)NO |  | 11.8 |
| CC[C@@H](C)[C@H](NS(=O)(=O)c1ccc(-c2ccc(Cl)cc2)cc1)C(=O)NO |  | 41.8 |
| CC[C@@H](C)[C@@H](NS(=O)(=O)c1ccc(-c2ccc(Cl)cc2)cc1)C(=O)NO |  | 6.91 |
| CC(C)C[C@@H](NS(=O)(=O)c1ccc(-c2ccc(Cl)cc2)cc1)C(=O)NO |  | 25.9 |
| CC(C)C[C@H](NS(=O)(=O)c1ccc(-c2ccc(Cl)cc2)cc1)C(=O)NO |  | 24.8 |
| CC(C)[C@H](NS(=O)(=O)c1ccc(-c2ccc(Cl)cc2)cc1)C(=O)NO |  | 38.2 |
| O=C(NO)[C@H](Cc1ccccc1)NS(=O)(=O)c1ccc(-c2ccc(Cl)cc2)cc1 |  | > 100 |
| O=C(NO)[C@@H]1CCCN1S(=O)(=O)c1ccc(-c2ccc(Cl)cc2)cc1 |  | > 100 |
| CC[C@H](C)[C@H](NS(=O)(=O)c1ccc(-c2ccc(Cl)cc2)cc1)C(=O)O |  | > 100 |
| CC[C@H](C)[C@H](NS(=O)(=O)c1ccc(-c2ccc(Cl)cc2)cc1)C(N)=O |  | > 100 |
| CC[C@H](C)[C@H](NS(=O)(=O)c1ccc(-c2ccc(Cl)cc2)cc1)C(=O)NO |  | 10.1 |
| CC[C@H](C)[C@H](NS(=O)(=O)c1ccc(-c2ccc(C)cc2)cc1)C(=O)NO |  | > 100 |
| CC[C@@H](C)[C@@H](NS(=O)(=O)c1cccc(-c2ccc(Cl)cc2)c1)C(=O)NO |  | 0.95 |
